Measurements from patent publication US20250114356A1, “INDAZOLE BASED COMPOUNDS AND ASSOCIATED METHODS OF USE” (Arvinas Operations, Inc., priority 2020, published 2025).

Legend:
G2019S LRRK2 = target: T1, G2019S LRRK2 (Homo sapiens, UniProt Q5S007, G2019S); test: LRRK2 degradation assay, G2019S LRRK2-HiBit expressed from plasmid in HEK293 cells; format: cell-based; details: HEK293 cells transfected with HiBit-tagged G2019S LRRK2, 24 hours compound incubation
T1 construct: expressed in transfected cells; host or cells: HEK293 (ATCC CRL-1573), transient transfection, ubiquitin promoter
T1 sequence (Q5S007 whole entry G2019S): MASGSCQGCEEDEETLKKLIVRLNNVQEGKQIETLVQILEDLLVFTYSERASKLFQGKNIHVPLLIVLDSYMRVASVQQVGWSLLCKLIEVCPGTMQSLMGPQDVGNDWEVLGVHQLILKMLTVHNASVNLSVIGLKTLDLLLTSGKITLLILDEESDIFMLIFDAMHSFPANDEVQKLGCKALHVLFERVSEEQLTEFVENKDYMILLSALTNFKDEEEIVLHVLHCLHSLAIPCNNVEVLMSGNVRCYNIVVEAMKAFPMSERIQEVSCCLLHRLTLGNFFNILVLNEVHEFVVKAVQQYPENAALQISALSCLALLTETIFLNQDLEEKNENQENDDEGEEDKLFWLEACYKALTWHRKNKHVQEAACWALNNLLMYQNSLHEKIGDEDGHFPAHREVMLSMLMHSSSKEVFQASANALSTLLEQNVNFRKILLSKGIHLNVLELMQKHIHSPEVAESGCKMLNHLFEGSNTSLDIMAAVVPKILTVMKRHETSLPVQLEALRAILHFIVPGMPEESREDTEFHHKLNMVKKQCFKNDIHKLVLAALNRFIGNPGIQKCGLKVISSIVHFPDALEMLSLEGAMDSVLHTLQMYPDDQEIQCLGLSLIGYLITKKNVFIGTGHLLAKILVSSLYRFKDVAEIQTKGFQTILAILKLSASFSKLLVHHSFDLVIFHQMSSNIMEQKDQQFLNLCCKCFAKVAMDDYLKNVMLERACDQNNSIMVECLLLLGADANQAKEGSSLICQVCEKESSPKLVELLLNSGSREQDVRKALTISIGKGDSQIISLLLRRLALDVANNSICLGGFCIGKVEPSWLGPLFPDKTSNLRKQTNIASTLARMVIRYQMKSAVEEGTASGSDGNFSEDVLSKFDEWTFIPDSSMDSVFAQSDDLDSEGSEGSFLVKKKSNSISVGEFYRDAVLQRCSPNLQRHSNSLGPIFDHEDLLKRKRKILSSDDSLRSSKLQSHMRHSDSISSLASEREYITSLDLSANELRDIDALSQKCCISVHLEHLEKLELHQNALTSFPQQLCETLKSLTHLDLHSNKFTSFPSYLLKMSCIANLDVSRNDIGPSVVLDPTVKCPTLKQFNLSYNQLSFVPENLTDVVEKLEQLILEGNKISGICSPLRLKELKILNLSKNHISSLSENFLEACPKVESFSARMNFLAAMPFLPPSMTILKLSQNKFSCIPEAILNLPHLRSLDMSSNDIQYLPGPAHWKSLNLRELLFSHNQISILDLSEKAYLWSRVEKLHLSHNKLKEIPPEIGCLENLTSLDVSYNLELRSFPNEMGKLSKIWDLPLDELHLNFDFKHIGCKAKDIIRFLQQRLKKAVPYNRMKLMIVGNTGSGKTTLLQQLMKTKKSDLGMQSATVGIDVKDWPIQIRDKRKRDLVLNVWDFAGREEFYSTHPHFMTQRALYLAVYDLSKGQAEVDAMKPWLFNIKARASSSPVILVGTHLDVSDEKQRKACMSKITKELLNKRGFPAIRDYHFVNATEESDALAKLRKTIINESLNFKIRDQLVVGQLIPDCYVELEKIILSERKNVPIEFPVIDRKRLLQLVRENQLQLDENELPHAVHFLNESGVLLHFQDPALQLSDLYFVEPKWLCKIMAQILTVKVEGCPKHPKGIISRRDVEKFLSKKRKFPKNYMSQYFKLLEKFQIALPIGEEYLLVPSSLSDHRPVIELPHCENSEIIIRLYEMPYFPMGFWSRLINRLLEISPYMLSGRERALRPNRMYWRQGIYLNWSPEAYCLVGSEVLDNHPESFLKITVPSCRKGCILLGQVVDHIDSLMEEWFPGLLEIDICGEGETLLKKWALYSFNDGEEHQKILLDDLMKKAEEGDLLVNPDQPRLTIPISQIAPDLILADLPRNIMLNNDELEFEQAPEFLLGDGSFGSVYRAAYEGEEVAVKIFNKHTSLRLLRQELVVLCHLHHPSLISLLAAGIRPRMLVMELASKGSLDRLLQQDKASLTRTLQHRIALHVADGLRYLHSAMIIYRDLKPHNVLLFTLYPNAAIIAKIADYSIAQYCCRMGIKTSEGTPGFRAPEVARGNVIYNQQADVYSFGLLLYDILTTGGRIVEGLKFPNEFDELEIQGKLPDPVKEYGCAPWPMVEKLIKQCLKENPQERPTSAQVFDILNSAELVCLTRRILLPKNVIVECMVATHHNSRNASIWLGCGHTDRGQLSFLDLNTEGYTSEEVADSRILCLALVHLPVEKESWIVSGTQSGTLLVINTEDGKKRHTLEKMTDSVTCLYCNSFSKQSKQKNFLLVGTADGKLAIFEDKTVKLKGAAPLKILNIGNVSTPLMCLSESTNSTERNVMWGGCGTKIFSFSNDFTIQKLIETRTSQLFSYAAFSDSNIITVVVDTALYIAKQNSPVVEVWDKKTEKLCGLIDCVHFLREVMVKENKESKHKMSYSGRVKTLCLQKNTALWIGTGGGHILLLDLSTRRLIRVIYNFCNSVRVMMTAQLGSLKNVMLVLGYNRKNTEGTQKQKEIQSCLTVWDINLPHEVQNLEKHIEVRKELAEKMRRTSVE
Experimental: (§1) The assay measures the degradation of wildtype and G2019S LRRK2 tagged with a HiBit tag on the C-terminus of the protein that was expressed from a mammalian expression vector, driven by the ubiquitin promoter in HEK293 cells. Each compound dose-response was repeated on two separate days, on three separate plates each day.
(§2) Plasmid Preparation. Transfection mixes were assembled as follows and incubated for 30 minutes at room temperature. In a 15 mL tube, 5.25 mL Opti-MEM (no additions) was mixed with 17 μL Firefly Luciferase plasmid at 1 μg/μL and 158 μL WT plasmid DNA at 1 μg/μL (175 μg total DNA) were mixed by flicking. In a new 15 mL tube, 5.25 mL OptiMEM was mixed with 17 μL Firefly Luciferase plasmid at 1 μg/μL and 158 μL G2019S plasmid DNA at 1 μg/μL (175 μg total DNA) were mixed by flicking. X-tremeGene HP was mixed thoroughly using a vortex. Next, 175 μL was added to each tube and flicked to mix. Both tubes were left to incubate for 30 minutes at room temperature.
(§3) While the transfection mixes were incubating, HEK293 cells (acquired from ATCC; ATCC CRL-1573) were harvested with trypsin. Once cells are detached, the cells were resuspended in 12 mL OptiMEM+5% FBS and transferred to a 50 mL tube. The cells were mixed well and counted. Using OptiMEM+5% FBS, the cells were diluted in two 250 mL conical tubes at 0.71×10^6 cells/mL in 70 mL. One tube was labeled “WT” and the other “G2019S”. The WT and G2019S transfection mixes were added dropwise to the corresponding 250 mL tubes. The tubes were mixed first by pipetting then by swirling. The tubes were incubated at room temperature for at least 5 minutes.
(§4) Each tube was swirled before dispensing and after every three plates. Seventy microliters of cells were dispensed with WT or G2019S DNA to seven plates each. Three plates of each were tested with compound plate one (preparation described below) and three plates of each were tested with compound plate two (preparation described below). The first plate from each set served as a “prime” plate and was not used to test compounds. Each plate was incubated in the hood for 10 minutes before placing in the 37° C. incubator for 24 hours.
(§5) Preparation of Compound and Assay Plates. Two compound plates were made using 96 well polypropylene plates. Compounds were made up at 10 mM and were diluted to 1 mM in 30 μL. Each dose response curve included a well of DMSO, as a negative control and for normalization, and a well of 0.5 μM of Exemplary Compound 4 as a positive control. In addition to seven test compounds, each plate also included a dose response of Exemplary Compound 4. The compound plates were spun down along at 1200 rpm for 2 minutes.
(§6) The two compound plates were then mixed and 2 μL was diluted in intermediate plates having 248 μL of Opti-Mem in each well. Next, 10 μL diluted compounds from the intermediate plates were added to each test plate (three WT and three G2019S plates per compound plate for a total of 12 assay plates). The plates were incubated for 24 hours at 37° C.
(§7) All assay plates and all Nano-Glo Dual-Luciferase Reporter Assay System components (except for the DLR substrate) were equilibrated to room temperature. Next, the luciferase buffer was mixed with the lyophilized amber bottle until fully dissolved, and 75 μL of the luciferase mixture was added to each well of each assay plate. The assay plates were incubated for 10 minutes at room temperature with shaking for at least 5 minutes, and then read on a plate reader.
(§8) Developing Plates and Analyzing Data. One milliliter of DLR substrate and 1 mL LgBiT Protein were added to the Stop and Glo buffer, and 75 μL of the mixture was added to each well of each plate. Optically clear seals were added to each plate and each plate was incubated for 20 minutes with shaking for at least 10 minutes, and then read on a plate reader. […]

wildtype LRRK2 = target: T2, wildtype LRRK2 (Homo sapiens, UniProt Q5S007); test: LRRK2 degradation assay, wildtype LRRK2-HiBit expressed from plasmid in HEK293 cells; format: cell-based; details: HEK293 cells transfected with HiBit-tagged wildtype LRRK2, 24 hours compound incubation; for Dmax: read-out: **WT Dmax (%); for DC50: read-out: *WT DC50
T2 construct: expressed in transfected cells; host or cells: HEK293 (ATCC CRL-1573), transient transfection, ubiquitin promoter
T2 sequence (Q5S007 whole entry): as the sequence (Q5S007 whole entry G2019S) above, with S2019G counted along it
Experimental: as §1, §2, §3, §4, §5, §6, §7, §8

Structure (SMILES)	DC50 (G2019S LRRK2)	Dmax (G2019S LRRK2)	Dmax (wildtype LRRK2)	DC50 (wildtype LRRK2)
CC(C)Oc1ccc2[nH]nc(-c3cc(N4C[C@@H](C)N(CCOCCOCCOCCOc5ccc6c(c5)C(=O)N(C5CCC(=O)NC5=O)C6=O)[C@@H](C)C4)ncn3)c2c1 (stereo partly drawn) [compound 10, 5-{2-[2-(2-{2-[(2R,6S)-2,6-dimethyl-4-{6-[5-(propan-2-yloxy)-1H-indazol-3-yl]pyrimidin-4-yl}piperazin-1-yl]ethoxy}ethoxy)ethoxy]ethoxy}-2-(2,6-dioxopiperidin-3-yl)-2,3-dihydro-1H-isoindole-1,3-dione]	10 to 50 nM	50 to 70%	50 to 70%	10 to 50 nM
CC(C)Oc1ccc2[nH]nc(-c3cc(N4CCN(CCN5CCC(CN6CCN(c7ccc8c(c7)C(=O)N(C7CCC(=O)NC7=O)C8=O)CC6)CC5)CC4)ncn3)c2c1 (stereo not shown) [compound 27, 2-(2,6-dioxopiperidin-3-yl)-5-[4-({1-[2-(4-{6-[5-(propan-2-yloxy)-1H-indazol-3-yl]pyrimidin-4-yl}piperazin-1-yl)ethyl]piperidin-4-yl}methyl)piperazin-1-yl]-2,3-dihydro-1H-isoindole-1,3-dione]	< 10 nM	≥ 70%	≥ 70%	< 10 nM
CC(C)Oc1ccc2[nH]nc(-c3cc(N4CCN(CCOCCN5CCN(c6ccc7c(c6)C(=O)N(C6CCC(=O)NC6=O)C7=O)CC5)[C@@H](C)C4)ncn3)c2c1 (stereo partly drawn) [compound 22, 2-(2,6-dioxo-3-piperidyl)-5-[4-[2-[2-[(2S)-4-[6-(5-isopropoxy-1H-indazol-3-yl)pyrimidin-4-yl]-2-methyl-piperazin-1-yl]ethoxy]ethyl]piperazin-1-yl]isoindoline-1,3-dione]	10 to 50 nM	< 50%	< 50%	10 to 50 nM
CC(C)Oc1ccc2[nH]nc(-c3cc(N4CCN(CC5CCN(CC6CCN(c7ccc8c(c7)C(=O)N(C7CCC(=O)NC7=O)C8=O)CC6)CC5)[C@@H](C)C4)ncn3)c2c1 (stereo partly drawn) [compound 25, 2-(2,6-dioxopiperidin-3-yl)-5-{4-[(4-{[(2S)-2-methyl-4-{6-[5-(propan-2-yloxy)-1H-indazol-3-yl]pyrimidin-4-yl}piperazin-1-yl]methyl}piperidin-1-yl)methyl]piperidin-1-yl}-2,3-dihydro-1H-isoindole-1,3-dione]	< 10 nM	≥ 70%	≥ 70%	< 10 nM
CC(C)Oc1ccc2[nH]nc(-c3ccnc(N4CCN(CCOCCOCCOCCOc5ccc6c(c5)C(=O)N(C5CCC(=O)NC5=O)C6=O)[C@@H](C)C4)c3)c2c1 (stereo partly drawn) [compound 11, 2-(2,6-dioxopiperidin-3-yl)-5-{2-[2-(2-{2-[(2S)-2-methyl-4-{4-[5-(propan-2-yloxy)-1H-indazol-3-yl]pyridin-2-yl}piperazin-1-yl]ethoxy}ethoxy)ethoxy]ethoxy}-2,3-dihydro-1H-isoindole-1,3-dione]	10 to 50 nM	50 to 70%	50 to 70%	≥ 100 nM
C[C@H]1CN(c2cc(-c3n[nH]c4ccc(OC5(C)CC5)cc34)ncn2)CCN1CCOCCOCCOCCOc1ccc2c(c1)C(=O)N(C1(C)CCC(=O)NC1=O)C2=O (stereo partly drawn) [compound 19, 2-(3-methyl-2,6-dioxopiperidin-3-yl)-5-{2-[2-(2-{2-[(2S)-2-methyl-4-{6-[5-(1-methylcyclopropoxy)-1H-indazol-3-yl]pyrimidin-4-yl}piperazin-1-yl]ethoxy}ethoxy)ethoxy]ethoxy}-2,3-dihydro-1H-isoindole-1,3-dione]	10 to 50 nM	< 50%	< 50%	≥ 100 nM
C[C@@H]1CN(c2cc(-c3n[nH]c4ccc(OC5(C)CC5)cc34)ncn2)C[C@H](C)N1CCOCCOCCOCCOc1ccc2c(c1)C(=O)N(C1CCC(=O)NC1=O)C2=O (stereo partly drawn) [compound 7, 5-{2-[2-(2-{2-[(2R,6S)-2,6-dimethyl-4-{6-[5-(1-methylcyclopropoxy)-1H-indazol-3-yl]pyrimidin-4-yl}piperazin-1-yl]ethoxy}ethoxy)ethoxy]ethoxy}-2-(2,6-dioxopiperidin-3-yl)-2,3-dihydro-1H-isoindole-1,3-dione]	< 10 nM	50 to 70%	≥ 70%	< 10 nM
C[C@H]1CN(c2cc(-c3n[nH]c4ccc(OC5(C)CC5)cc34)ncn2)CCN1CCOCCOc1ccc2c(c1)C(=O)N(C1CCC(=O)NC1=O)C2=O (stereo partly drawn) [compound 2, 2-(2,6-dioxopiperidin-3-yl)-5-(2-{2-[(2S)-2-methyl-4-{6-[5-(1-methylcyclopropoxy)-1H-indazol-3-yl]pyrimidin-4-yl}piperazin-1-yl]ethoxy}ethoxy)-2,3-dihydro-1H-isoindole-1,3-dione]	< 10 nM	< 50%	50 to 70%	< 10 nM

Other lines, results leading:

DC50 (G2019S LRRK2)	Dmax (G2019S LRRK2)	Dmax (wildtype LRRK2)	DC50 (wildtype LRRK2)	Structure (SMILES)
10 to 50 nM	50 to 70%	≥ 70%	10 to 50 nM	CC(C)Oc1ccc2[nH]nc(-c3cc(N4CCN(CC(F)(F)C5CCN(CC6CCN(c7ccc8c(c7)C(=O)N(C7CCC(=O)NC7=O)C8=O)CC6)CC5)CC4)ncn3)c2c1 (stereo not shown) [compound 40, 5-(4-((4-(1,1-difluoro-2-(4-(6-(5-isopropoxy-1H-indazol-3-yl)pyrimidin-4-yl)piperazin-1-yl)ethyl)piperidin-1-yl)methyl)piperidin-1-yl)-2-(2,6-dioxopiperidin-3-yl)isoindoline-1,3-dione]
< 10 nM	50 to 70%	50 to 70%	< 10 nM	CC(C)Oc1ccc2[nH]nc(-c3cc(N4CCO[C@H](CN5CCN(CC6CCN(c7ccc8c(c7)C(=O)N(C7CCC(=O)NC7=O)C8=O)CC6)CC5)C4)ncn3)c2c1 (stereo partly drawn) [compound 48, 2-(2,6-dioxopiperidin-3-yl)-5-(4-((4-(((R)-4-(6-(5-isopropoxy-1H-indazol-3-yl)pyrimidin-4-yl)morpholin-2-yl)methyl)piperazin-1-yl)methyl)piperidin-1-yl)isoindoline-1,3-dione]
10 to 50 nM	≥ 70%	≥ 70%	< 10 nM	CC(C)Oc1ccc2[nH]nc(-c3cc(N4CCN(CCN5CCC(CN6CCN(c7ccc8c(c7)CN(C7CCC(=O)NC7=O)C8=O)CC6)CC5)[C@@H](C)C4)ncn3)c2c1 (stereo partly drawn) [compound 31, 3-(5-{4-[(1-{2-[(2S)-2-methyl-4-{6-[5-(propan-2-yloxy)-1H-indazol-3-yl]pyrimidin-4-yl}piperazin-1-yl]ethyl}piperidin-4-yl)methyl]piperazin-1-yl}-1-oxo-2,3-dihydro-1H-isoindol-2-yl)piperidine-2,6-dione]
< 10 nM	≥ 70%	≥ 70%	< 10 nM	CC1(Oc2ccc3[nH]nc(-c4cc(N5CCN(CCN6CCC(CN7CCN(c8ccc9c(c8)C(=O)N(C8CCC(=O)NC8=O)C9=O)CC7)CC6)CC5)ncn4)c3c2)CC1 (stereo not shown) [compound 28, 2-(2,6-dioxopiperidin-3-yl)-5-[4-({1-[2-(4-{6-[5-(1-methylcyclopropoxy)-1H-indazol-3-yl]pyrimidin-4-yl}piperazin-1-yl)ethyl]piperidin-4-yl}methyl)piperazin-1-yl]-2,3-dihydro-1H-isoindole-1,3-dione]
10 to 50 nM	50 to 70%	≥ 70%	10 to 50 nM	CC(C)Oc1ccc2[nH]nc(-c3cc(N4CCN(CC[C@@H]5CCN(CC6CCN(c7ccc8c(c7)C(=O)N(C7CCC(=O)NC7=O)C8=O)CC6)C5)CC4)ncn3)c2c1 (stereo partly drawn) [compound 43, 2-(2,6-dioxopiperidin-3-yl)-5-(4-(((S)-3-(2-(4-(6-(5-isopropoxy-1H-indazol-3-yl)pyrimidin-4-yl)piperazin-1-yl)ethyl)pyrrolidin-1-yl)methyl)piperidin-1-yl)isoindoline-1,3-dione]
